Experimental data taken from publication PMC4774911, “Biochemical Screening of Five Protein Kinases from Plasmodium falciparum against 14,000 Cell-Active Compounds” (PLoS ONE, 2016).
“And” between values parts separate entries of the source, which are not always exact repeats. Equal values may be shown once.

Key:
Assay in all cases: biochemical
Set-up in all cases: endogenous in cells; host or cells: K562 cell extract; species or system K562 (extract); replicate k of n = 2 (each experiment ID is one independent experiment; two experiment IDs per compound)
Details in all cases: read-out: KDapp
[1] = biological target: T1, TNK1 (Homo sapiens, UniProt Q13470)
T1 sequence (Q13470 1-666): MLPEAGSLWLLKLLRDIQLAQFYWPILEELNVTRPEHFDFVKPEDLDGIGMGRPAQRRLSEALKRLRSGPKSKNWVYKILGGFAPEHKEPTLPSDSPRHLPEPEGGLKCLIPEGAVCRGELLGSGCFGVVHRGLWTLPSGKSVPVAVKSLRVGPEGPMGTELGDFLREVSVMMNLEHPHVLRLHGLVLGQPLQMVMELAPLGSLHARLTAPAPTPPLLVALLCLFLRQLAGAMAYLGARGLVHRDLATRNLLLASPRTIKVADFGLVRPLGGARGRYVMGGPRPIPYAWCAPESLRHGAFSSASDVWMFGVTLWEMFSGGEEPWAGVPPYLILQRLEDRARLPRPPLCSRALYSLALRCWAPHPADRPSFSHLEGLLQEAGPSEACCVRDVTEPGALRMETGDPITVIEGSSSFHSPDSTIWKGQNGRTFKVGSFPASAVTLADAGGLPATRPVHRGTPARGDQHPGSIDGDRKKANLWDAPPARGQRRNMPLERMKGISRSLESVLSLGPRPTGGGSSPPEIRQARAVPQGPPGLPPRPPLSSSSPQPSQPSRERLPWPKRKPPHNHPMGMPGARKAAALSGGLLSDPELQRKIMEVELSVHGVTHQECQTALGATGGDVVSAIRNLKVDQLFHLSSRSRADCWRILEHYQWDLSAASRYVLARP

[2] = biological target: PIK3R4 (Homo sapiens, UniProt Q99570)
[3] = biological target: T2, IKBKE (Homo sapiens, UniProt Q14164)
T2 sequence (Q14164 1-716): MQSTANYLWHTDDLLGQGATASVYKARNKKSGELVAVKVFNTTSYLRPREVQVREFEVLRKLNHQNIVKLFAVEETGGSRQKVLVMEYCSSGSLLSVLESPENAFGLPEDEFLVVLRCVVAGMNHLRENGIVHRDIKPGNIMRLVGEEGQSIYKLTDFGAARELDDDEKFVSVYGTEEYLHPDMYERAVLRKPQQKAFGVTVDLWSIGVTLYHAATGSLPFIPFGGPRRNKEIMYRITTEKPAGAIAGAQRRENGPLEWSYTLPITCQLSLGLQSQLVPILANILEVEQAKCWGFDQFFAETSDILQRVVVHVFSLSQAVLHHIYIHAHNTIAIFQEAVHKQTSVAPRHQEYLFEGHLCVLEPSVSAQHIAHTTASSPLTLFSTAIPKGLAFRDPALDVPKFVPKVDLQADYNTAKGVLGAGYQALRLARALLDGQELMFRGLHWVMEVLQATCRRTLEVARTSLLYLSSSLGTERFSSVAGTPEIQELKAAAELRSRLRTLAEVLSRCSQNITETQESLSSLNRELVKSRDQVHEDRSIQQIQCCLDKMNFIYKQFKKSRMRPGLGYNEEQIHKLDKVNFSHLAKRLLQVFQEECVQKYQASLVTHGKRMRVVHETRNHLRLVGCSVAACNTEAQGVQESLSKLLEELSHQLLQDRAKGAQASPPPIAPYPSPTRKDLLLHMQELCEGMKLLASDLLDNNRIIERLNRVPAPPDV

[4] = biological target: T3, MAP4K2 (Homo sapiens, UniProt Q12851)
T3 sequence (Q12851 1-820): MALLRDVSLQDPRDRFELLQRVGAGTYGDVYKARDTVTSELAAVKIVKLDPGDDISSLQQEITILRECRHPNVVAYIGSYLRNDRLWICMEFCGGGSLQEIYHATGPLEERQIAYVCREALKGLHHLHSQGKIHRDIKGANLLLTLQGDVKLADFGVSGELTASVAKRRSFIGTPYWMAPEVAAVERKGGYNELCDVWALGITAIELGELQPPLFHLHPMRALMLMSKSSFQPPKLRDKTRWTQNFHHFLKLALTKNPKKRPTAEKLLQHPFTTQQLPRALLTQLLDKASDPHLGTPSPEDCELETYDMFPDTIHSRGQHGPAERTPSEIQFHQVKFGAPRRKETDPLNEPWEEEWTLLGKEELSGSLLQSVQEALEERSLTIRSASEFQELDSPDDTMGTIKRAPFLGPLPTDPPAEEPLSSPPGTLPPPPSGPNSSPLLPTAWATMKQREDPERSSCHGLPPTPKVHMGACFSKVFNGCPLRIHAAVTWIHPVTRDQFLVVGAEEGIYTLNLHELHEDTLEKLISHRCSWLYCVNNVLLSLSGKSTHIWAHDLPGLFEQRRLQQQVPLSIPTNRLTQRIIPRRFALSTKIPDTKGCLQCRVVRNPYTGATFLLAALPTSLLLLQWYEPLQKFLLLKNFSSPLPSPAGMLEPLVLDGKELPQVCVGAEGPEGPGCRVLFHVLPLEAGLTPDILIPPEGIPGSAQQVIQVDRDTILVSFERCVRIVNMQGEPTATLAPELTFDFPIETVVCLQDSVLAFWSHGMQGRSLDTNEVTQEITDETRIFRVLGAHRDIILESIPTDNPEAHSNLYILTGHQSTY

Sequence of PIK3R4 (Q99570 whole entry): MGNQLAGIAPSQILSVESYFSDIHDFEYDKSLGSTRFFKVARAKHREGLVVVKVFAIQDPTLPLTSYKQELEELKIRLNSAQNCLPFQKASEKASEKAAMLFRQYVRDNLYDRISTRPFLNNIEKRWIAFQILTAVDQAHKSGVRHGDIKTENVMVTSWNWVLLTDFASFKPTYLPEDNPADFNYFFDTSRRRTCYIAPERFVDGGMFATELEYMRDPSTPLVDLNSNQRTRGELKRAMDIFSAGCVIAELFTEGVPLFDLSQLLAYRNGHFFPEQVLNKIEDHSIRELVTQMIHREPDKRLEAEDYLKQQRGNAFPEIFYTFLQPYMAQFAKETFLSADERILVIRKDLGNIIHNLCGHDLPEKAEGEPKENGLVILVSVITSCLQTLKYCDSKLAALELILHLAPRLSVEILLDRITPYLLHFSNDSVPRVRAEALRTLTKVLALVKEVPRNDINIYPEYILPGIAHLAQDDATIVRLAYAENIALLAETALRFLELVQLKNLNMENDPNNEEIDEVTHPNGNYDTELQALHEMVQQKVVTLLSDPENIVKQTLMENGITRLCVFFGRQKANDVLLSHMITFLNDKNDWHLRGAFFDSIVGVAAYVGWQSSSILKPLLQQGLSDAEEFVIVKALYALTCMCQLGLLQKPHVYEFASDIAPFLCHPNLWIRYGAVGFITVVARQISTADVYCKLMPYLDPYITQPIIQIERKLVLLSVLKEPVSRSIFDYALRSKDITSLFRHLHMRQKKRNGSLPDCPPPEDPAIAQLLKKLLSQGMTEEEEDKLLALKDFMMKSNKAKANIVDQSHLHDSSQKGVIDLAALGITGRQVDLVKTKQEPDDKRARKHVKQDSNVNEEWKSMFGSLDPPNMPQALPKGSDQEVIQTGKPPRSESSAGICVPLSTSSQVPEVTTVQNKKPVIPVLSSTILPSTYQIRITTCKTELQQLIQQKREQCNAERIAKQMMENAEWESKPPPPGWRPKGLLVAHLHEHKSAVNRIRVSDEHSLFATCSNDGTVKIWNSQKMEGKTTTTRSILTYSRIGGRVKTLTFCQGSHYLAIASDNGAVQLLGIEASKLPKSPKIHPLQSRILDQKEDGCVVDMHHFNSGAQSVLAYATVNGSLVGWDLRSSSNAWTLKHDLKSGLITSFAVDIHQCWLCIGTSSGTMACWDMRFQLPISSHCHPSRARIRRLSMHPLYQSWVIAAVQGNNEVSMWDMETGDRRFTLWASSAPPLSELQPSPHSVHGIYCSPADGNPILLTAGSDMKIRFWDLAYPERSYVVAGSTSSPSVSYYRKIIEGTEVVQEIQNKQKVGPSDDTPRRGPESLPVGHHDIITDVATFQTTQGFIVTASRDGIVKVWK

SMILES | Kd [1] | Kd [2] [nM] | Kd [3] [nM] | Kd [4] [nM]
CN(C)CC(O)COc1ccc(Nc2ncc([N+](=O)[O-])c(Nc3ccccc3O)n2)cc1.O=C(O)C(F)(F)F (stereo not shown) [TCMDC-141399] | 1150 nM and 464 nM | – | – | –
CN1CCN(c2ccc(Nc3ncc(C#N)c(Nc4ccccc4C(N)=O)n3)cc2)CC1.Cl [TCMDC-134116] | – | 1840 | 954 | 648
